What all share (experiment): ChaCha beta-arrestin/TEV-release GFP reporter in HEK293T cells
What all share (assay type): cell-based

Test [1] has as its target T1, kappa opioid receptor DREADD (KORD) (Homo sapiens, UniProt P41145, D138N).
T1 construct: gene OPRK1; KORD-V2-TEVp; with ARRB2 (ARRB2-TCS-dCas9-VPR)

A further test addresses T2, LPAR1 (Homo sapiens, UniProt Q92633).
T2 construct: LPAR1-V2-TEVp; with ARRB2 (ARRB2-TCS-dCas9-VPR)

Another test addresses T3, TRHR (Homo sapiens, UniProt P34981).
T3 construct: TRHR-V2-TEVp; with ARRB2 (ARRB2-TCS-dCas9-VPR)

The values below come from paper PMC5738360, “Engineering cell sensing and responses using a GPCR-coupled CRISPR-Cas system” (Nature Communications, 2017).

Structures are written as SMILES.

T1 sequence (P41145 whole entry D138N): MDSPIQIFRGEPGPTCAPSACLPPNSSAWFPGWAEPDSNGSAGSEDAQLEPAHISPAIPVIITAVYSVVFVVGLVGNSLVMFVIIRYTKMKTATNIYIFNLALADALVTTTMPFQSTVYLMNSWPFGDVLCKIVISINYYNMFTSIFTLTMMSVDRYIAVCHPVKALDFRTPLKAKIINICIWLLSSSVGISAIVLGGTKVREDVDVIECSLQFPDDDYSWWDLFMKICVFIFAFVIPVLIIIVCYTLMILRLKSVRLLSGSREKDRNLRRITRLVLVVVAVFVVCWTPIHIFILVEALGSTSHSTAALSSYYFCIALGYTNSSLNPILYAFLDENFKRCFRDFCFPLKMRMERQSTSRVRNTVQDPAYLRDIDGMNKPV
T1 sequence (P32121 whole entry, further chain): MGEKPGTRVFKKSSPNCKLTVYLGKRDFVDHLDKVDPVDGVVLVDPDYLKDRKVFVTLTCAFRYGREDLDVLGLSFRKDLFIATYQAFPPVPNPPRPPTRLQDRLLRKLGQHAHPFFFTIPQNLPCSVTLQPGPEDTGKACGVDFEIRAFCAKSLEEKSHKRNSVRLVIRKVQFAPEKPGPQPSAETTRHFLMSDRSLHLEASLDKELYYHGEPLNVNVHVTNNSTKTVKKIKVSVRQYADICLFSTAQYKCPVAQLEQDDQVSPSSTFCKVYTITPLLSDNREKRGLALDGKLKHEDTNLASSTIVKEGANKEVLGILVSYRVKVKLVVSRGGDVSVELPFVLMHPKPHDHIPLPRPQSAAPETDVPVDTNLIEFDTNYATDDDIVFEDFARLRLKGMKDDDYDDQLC
T2 sequence (Q92633 whole entry): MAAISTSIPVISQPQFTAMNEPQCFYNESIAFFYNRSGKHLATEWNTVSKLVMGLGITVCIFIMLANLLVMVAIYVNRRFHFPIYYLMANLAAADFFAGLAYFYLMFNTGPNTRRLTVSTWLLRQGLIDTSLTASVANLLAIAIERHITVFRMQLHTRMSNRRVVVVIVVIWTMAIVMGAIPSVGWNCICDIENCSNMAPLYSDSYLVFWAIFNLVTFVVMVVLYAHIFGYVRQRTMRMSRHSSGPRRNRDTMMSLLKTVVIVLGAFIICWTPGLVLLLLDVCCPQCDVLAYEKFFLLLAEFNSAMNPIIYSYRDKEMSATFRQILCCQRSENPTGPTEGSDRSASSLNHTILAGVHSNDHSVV
T2 sequence (P32121 whole entry partner): as the sequence (P32121 whole entry, further chain) above
T3 sequence (P34981 whole entry): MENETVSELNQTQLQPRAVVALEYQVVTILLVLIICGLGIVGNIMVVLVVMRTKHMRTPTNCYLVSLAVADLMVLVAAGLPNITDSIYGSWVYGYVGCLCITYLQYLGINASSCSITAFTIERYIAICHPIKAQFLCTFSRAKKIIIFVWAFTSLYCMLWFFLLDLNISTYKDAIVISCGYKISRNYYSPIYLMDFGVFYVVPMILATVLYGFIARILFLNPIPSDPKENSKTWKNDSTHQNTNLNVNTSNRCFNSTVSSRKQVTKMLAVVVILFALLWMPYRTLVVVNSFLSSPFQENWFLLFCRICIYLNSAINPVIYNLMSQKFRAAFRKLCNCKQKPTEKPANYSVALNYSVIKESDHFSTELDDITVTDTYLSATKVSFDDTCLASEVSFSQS
T3 sequence (P32121 whole entry partner): as the sequence (P32121 whole entry, further chain) above

As for `COC(=O)[C@@H]1C[C@H](O)C(=O)[C@H]2[C@@]1(C)CC[C@H]1C(=O)O[C@H](c3ccoc3)C[C@]21C` [Salvinorin B], in test [1], the “ChaCha beta-arrestin/TEV-release GFP reporter in HEK293T cells” value is “another evolved GPCR, the kappa opioid receptor DREADD (KORD), which senses Salvinorin B”.
`CCCCCCCC/C=C\CCCCCCCC(=O)OC[C@@H](O)COP(=O)(O)O` [lysophosphatidic acid]: on LPAR1, the “ChaCha beta-arrestin/TEV-release GFP reporter in HEK293T cells” value was “LPAR1, which senses the fatty acid lysophosphatidic acid”.
For `NC(=O)[C@@H]1CCCN1C(=O)[C@H](Cc1cnc[nH]1)NC(=O)[C@@H]1CCC(=O)N1` [thyrotropin-releasing hormone], the “ChaCha beta-arrestin/TEV-release GFP reporter in HEK293T cells” value at TRHR was “TRHR, which senses thyrotropin-releasing hormone”.
